These results are taken from US6218431A, “Substituted biphenyls” (Bayer Corporation, priority 1997, dated 2001).

pIC50: −log10 of the molar value.

T1 sequence (P47871 26-477): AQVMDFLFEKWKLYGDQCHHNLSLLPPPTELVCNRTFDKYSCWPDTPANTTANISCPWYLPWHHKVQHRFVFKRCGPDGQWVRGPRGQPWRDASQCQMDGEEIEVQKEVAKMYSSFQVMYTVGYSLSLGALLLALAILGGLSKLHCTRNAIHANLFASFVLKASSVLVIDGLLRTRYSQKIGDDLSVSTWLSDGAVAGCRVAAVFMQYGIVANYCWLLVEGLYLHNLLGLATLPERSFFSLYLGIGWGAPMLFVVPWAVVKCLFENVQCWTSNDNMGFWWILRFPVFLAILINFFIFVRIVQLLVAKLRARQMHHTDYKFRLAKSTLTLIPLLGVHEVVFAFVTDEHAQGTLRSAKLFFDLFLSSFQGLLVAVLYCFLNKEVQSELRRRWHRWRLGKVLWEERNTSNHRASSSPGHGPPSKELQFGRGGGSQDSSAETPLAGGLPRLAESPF

The first assay concerns the target T1, glucagon receptor (Homo sapiens, UniProt P47871).
T1 construct: expressed in transfected cells; host or cells: Chinese Hamster Ovary cells (CHO-HGR), membranes
Kind of assay: glucagon receptor binding assay (125I-glucagon, CHO-HGR membranes). The note with it: 20 μM; reported where 20 μM did not reduce glucagon binding by 50%. The gist of the method:
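Membranes from CHO cells expressing glucagon receptor (10 ug protein) in Tris pH 7.4 buffer with EDTA, BSA and bacitracin, incubated with test compound and 125I-glucagon (9 fmol) 60 min at room temperature. Bound radioactivity counted after filtration; nonspecific binding defined with 1 μM native glucagon; 0.5% DMSO.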
One may read the inhibition as how much of the control response was suppressed. Higher therefore signals a response far below the control. Turning to `CC(C)c1nc(C(C)C)c(CN2CCOCC2)c(-c2ccc(F)cc2)c1CO` [Example 69, 2,6-Diisopropyl-3-hydroxymethyl-4-(4-fluorophenyl)-5-(morpholinomethyl)pyridine], the inhibition at 20 µM was found to be 40.2%.
`CCCCCc1c(C(C)C)nc(C(C)C)c(C(O)C[S@+]([O-])c2ccc(C)cc2)c1-c1ccc(F)cc1` (single isomer, unassigned) [Example 112] yielded an inhibition at 20 µM of 4.17%.
The same measure, in the same setting: the result for `CCCC=Cc1c(C(C)C)nc(C(C)C)c(CO)c1-c1ccc([S+](C)[O-])cc1` (stereo not shown) [Example 175, 2,6-Diisopropyl-3-hydroxymethyl-4-[4-(methylsulfinyl)phenyl]-5-(pent-1-enyl)pyridine] reads 40.9%; that for `CCCCN(CCCC)Cc1c(C(C)C)nc(C(C)C)c(CO)c1-c1ccc(F)cc1` [Example 80, 2,6-Diisopropyl-3-hydroxymethyl-4-(4fluorophenyl)-5-(dibutylamino)-methylpyridine], 38.8%; that for `CCCC=Cc1c(C)nc(C)c(CO)c1-c1ccccc1` [Example 3], 1.52%.
Regarding `CCCCCc1c(C(C)C)nc(C(C)C)c(C(O)CCCC)c1-c1ccc(F)cc1` (racemic) [Example 115, (±)-2,6-Diisopropyl-3-(1-hydroxypentyl)-4-(4-fluorophenyl)-5pentyl-pyridine], the inhibition at 20 µM was 21.1%.
The same measure, in the same setting: the result for `CCCCCc1c(C(C)C)nc(C(C)C)c(CO)c1-c1ccccc1C` [Example 142, 2,6-Diisopropyl-3-hydroxymethyl-4-(2-methylphenyl)-5pentylpyridine] reads 33.1%; that for `CC(C)c1nc(C(C)C)c(CSc2ccc(O)cc2)c(-c2ccc(F)cc2)c1CO` [Example 55, 2,6-Diisopropyl-3-hydroxymethyl-4-(4-fluorophenyl)-5-[(4-hydroxy-phenyl)thio]methylpyridine], 15.7%.
The compound `CCCC=Cc1c(C(C)C)nc(C(C)C)c(CO)c1-c1ccccc1C` [Example 141, 2,6-Diisopropyl-3-hydroxymethyl-4-(2-methylphenyl)-5-(pent-1-enyl)-pyridine] yielded an inhibition at 20 µM of 34%.
Still for that read-out and setting: the result for `C=CCc1c(C)cc(C)c(C(C)O)c1-c1ccc(F)cc1` (stereo not shown) [Example 196, 3,5-Dimethyl-2-(1-hydroxyethyl)-6-(prop-2-enyl)-4'-fluoro-1,1'-biphenyl] reads 40.3%; that for `CC(C)c1nc(C(C)C)c(CN2CCC(c3ccccc3)CC2)c(-c2ccc(F)cc2)c1CO` [Example 72], 42.1%; that for `CCCCCc1c(C(C)(C)O)nc(C(C)C)c(CO)c1-c1ccc(F)cc1` [Example 219, 2-(1-Hydroxy-1-methylethyl)-3-pentyl-4-(4-fluorophenyl)-5-hydroxymethyl-6-isopropylpyridine], 5.11%.
Still for that read-out and setting: the result for `CCCCCc1c(C(C)C)nc(C(C)C)c(CO)c1-c1cccc(Cl)c1` [Example 146, 2,6-Diisopropyl-3-hydroxymethyl-4-(3-chlorophenyl)-5-pentylpyridine] reads 48.8%.
Same read-out and setting: the result for `CCCCCc1c(C(C)C)nc(C(C)C)c(CO)c1-c1cccc(C)c1` [Example 140, 2,6-Diisopropyl-3-hydroxymethyl-4-(3-methylphenyl)-5-pentylpyridine] reads 46.3%; that for `C#Cc1ccccc1-c1c(C=CCCC)c(C(C)C)nc(C(C)C)c1CO` [Example 156, 2,6-Diisopropyl-3-hydroxymethyl-4-(2-ethynylphenyl)-5-(pent-1-enyl)-pyridine], 26.1%.
For `CCCCCc1c(C(C)C)nc(C(C)C)c(CNCC)c1-c1ccc(F)cc1` [Example 123, 2,6-Diisopropyl-3-(ethylamino)methyl-4-(4-fluorophenyl)-5-pentylpyridine], testing at 20 µM gave an inhibition of 49.2%.
On the same count and under the same terms, the result for `C=Cc1c(CC)nc(CC)c(CO)c1-c1ccccc1` [Example 8] reads 17%; that for `CCC(OC)c1c(C(C)C)nc(C(C)C)c(CO)c1-c1ccc(F)cc1` (racemic) [Example 99, (±)-2,6-Diisopropyl-3-hydroxymethyl-4-(4-fluorophenyl)-5-(1-methoxy-5-propyl)pyridine], 43.2%.
Same read-out and setting: the result for `CCc1nc(CC)c(CO)c(-c2ccccc2)c1CC` [Example 9] reads 16.6%; that for `CCCC=Cc1c(C(C)C)nc(C(C)C)c(CO)c1-c1cccc(OC)c1` [Example 170, 2,6-Diisopropyl-3-hydroxymethyl-4-(3-methoxyphenyl)-5-(pent-1-enyl)pyridine], 45.5%.

Still in this assay, the particulars now being: 125I-glucagon; 60 min at room temperature; read-out: IC50.
What is called pIC50 is −log10 of the IC50, conventionally taken in molar units. As for `CCCC=Cc1c(C(C)C)cc(C(C)C)c(CO)c1-c1ccc(F)cc1` [Example 194, 3,5-Diisopropyl-2-hydroxymethyl-6-(pent-1-enyl)-4'-fluoro-1,1'-biphenyl], the pIC50 is 6.00.
Still for that read-out and setting: the result for `C=CCC(O)c1nc(C(C)C)c(CO)c(-c2ccc(F)cc2)c1CCCCC` (stereo not shown) [Example 205, 2-(1-Hydroxybut-3-enyl)-3-pentyl-4-(4-fluorophenyl)-5-hydroxymethyl-6-isopropylpyridine] reads 4.74; that for `COC(C)c1c(C(C)C)nc(C(C)C)c(CO)c1-c1ccc(F)cc1` (racemic) [Example 98, (±)-2,6-Diisopropyl-3-hydroxymethyl-4-(4-fluorophenyl)-5-(1-methoxyethyl)pyridine], 4.85; that for `CCCCCCCc1c(C(C)C)nc(C(C)C)c(CO)c1-c1ccc(F)cc1` [Example 35, 2,6-Diisopropyl-3-hydroxymethyl-4-(4-fluorophenyl)-5-heptylpyridine], 6.15.
On the same count and under the same terms, the result for `Cc1cccc(SCc2c(C(C)C)nc(C(C)C)c(CO)c2-c2ccc(F)cc2)c1` [Example 57, 2,6-Diisopropyl-3-hydroxymethyl-4-(4-fluorophenyl)-5-[(3-methyl-phenyl)thio]methylpyridine] reads 5.96; that for `Cc1ccccc1/C=C/c1c(C(C)C)nc(C(C)C)c(CO)c1-c1ccc(F)cc1` [Example 40, 2,6-Diisopropyl-3-hydroxymethyl-4-(4-fluorophenyl)-5-[2(E)-(2-methyl-phenyl)ethenyl]pyridine], 6.12.
Consider `CCCCCc1c(C(C)C)nc(C(C)C)c(C(C)O)c1-c1ccccc1O` (single isomer, unassigned) [Example 164-D2, 2,6-Diisopropyl-3-(1-hydroxyethyl)-4-(2-hydroxyphenyl)-5-pentylpyridine], for which the pIC50 is 7.00.
Still for that read-out and setting: the result for `Cc1ccc(SCc2c(C(C)C)cc(C(C)C)c(C(C)O)c2-c2ccc(F)cc2)cc1` (single isomer, unassigned; (+)) [Example 249, (+)-3,5-Diisopropyl-2-[(p-tolylthio)methyl]-6-(1-hydroxyethyl)-4'-fluoro-1,1'-biphenyl] reads 6.89; that for `CSCc1c(C(C)C)nc(C(C)C)c(CO)c1-c1ccc(F)cc1` [Example 67, 2,6-Diisopropyl-3-hydroxymethyl-4-(4-fluorophenyl)-5-(methylthio)-methylpyridine], 5.96; that for `CC(C)c1cc(C(C)C)c(CSc2c(F)c(F)c(Cl)c(F)c2F)c(-c2ccc(F)cc2)c1CO` [Example 287], 4.70.
On the same count and under the same terms, the result for `CCCc1c(C(C)C)cc(C(C)C)c(CO)c1-c1ccc(F)cc1O` (racemic) [Example 241, 3,5-Diisopropyl-2-hydroxymethyl-6-propyl-4'-fluoro-2'-hydroxy-1,1'-biphenyl] reads 6.96.
With `CC(C)c1nc(C(C)C)c(CSc2ccc3ccccc3c2)c(-c2ccc(F)cc2)c1CO` [Example 52, 2,6Diisopropyl-3hydroxymethyl-4-(4-fluorophenyl)-5-(2-naphthyl-thio)methlpyridine], the pIC50 was 4.70.
Take `CC(C)c1nc(C(C)C)c(CCCc2ccccc2)c(-c2ccc(F)cc2)c1CO` [Example 83]: the pIC50 was 6.19.
The same measure, in the same setting: the result for `CCCCCc1c(C(C)C)nc(C(C)C)c(CO)c1-c1ccc(Cl)cc1` [Example 144, 2,6-Diisopropyl-3-hydroxymethyl-4-(4-chlorophenyl)-5-pentylpyridine] reads 6.10; that for `CCCSCc1c(C(C)C)nc(C(C)C)c(CO)c1-c1ccc(F)cc1` [Example 66, 2,6-Diisopropyl-3-hydroxymethyl4-(4-fluorophenyl)-5-(propylthio)-methylpyridine], 6.00.
The same measure, in the same setting: the result for `CC(C)c1nc(C(C)C)c(CO)c(-c2ccc(F)cc2)c1C=C1CCCC1` [Example 31, 2,6-Diisopropyl-3-hydroxymethyl-4-(4-flurorphenyl)-5-(cyclopentyl-idenemethylene)pyridine] reads 5.59; that for `CC(C)c1nc(C(C)C)c(CSCc2ccccc2)c(-c2ccc(F)cc2)c1CO` [Example 64], 5.96; that for `CCCCCc1c(C(C)C)nc(C(C)C)c(CO)c1-c1cccc(F)c1` [Example 128, 2,6-Diisopropyl-3-hydroxymethyl-4-(3-fluorophenyl)-5-pentylpyridine], 5.52.
On the same count and under the same terms, the result for `CC1=CC(C)(C)Cc2c1nc(C(C)C)c(CO)c2-c1ccc(F)cc1` [Example 236, 2-Isopropyl-3-hydroxymethyl-4-(4-fluorophenyl)-5,6-dihydro-6,6,8-trimethylquinoline] reads 5.40; that for `CC(C)c1cc(C(C)C)c(CSc2cc(Cl)cc(Cl)c2)c(-c2ccc(F)cc2)c1CO` [Example 285], 5.05; that for `CC(C)=Cc1c(C(C)C)nc(C(C)C)c(CO)c1-c1ccccc1` [Example 11], 5.10.
As for `CCCC=Cc1c(C(C)C)nc(C(C)C)c(CO)c1-c1ccccc1F` [Example 137, 2,6-Diisopropyl-3-hydroxymethyl-4-(2-fluorophenyl)-5-(pent-1-enyl)-pyridine], the negative logarithm of the IC50 (pIC50) is 4.96.
Still for that read-out and setting: the result for `CCCCCc1c(COCC)nc(C(C)C)c(CO)c1-c1ccc(F)cc1` [Example 202, 2-Ethoxymethyl-3-pentyl-4-(4-fluorophenyl)-5-hydroxymethyl-6-isopropylpyridine] reads 5.05.
